The source of these data is patent publication US9150592B2, “Heterocyclic nuclear hormone receptor modulators” (AbbVie Inc., priority 2012, dated 2015).

SMILES strings stand for the structures. pIC50: −log10 of the molar value.

Assay [1] concerns IL-6 in A549 cells stimulated with IL-1β. Kind of assay: A549 Cell Assay to Measure Inflammation Markers (inhibition of IL-1β-induced IL-6). In kind it is cell-based. The following applies: intrinsic activity, Emax class ranges; for Emax: Homo sapiens, A549, A549 Cell Assay to Measure Inflammation Markers. The gist of the method:
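Compound pre-incubated with A549 cells 1 h at 37 °C, then stimulated with IL-1β (1 ng/mL final, 0.1% DMSO). Supernatant IL-6 quantified by MSD immunoassay after a further incubation. IC50 and Emax derived.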

In assay [2] the target is T1, Glucocorticoid Receptor (GR) (Homo sapiens, UniProt P04150).
T1 construct: purchased Invitrogen P2893
T1 sequence (P04150 1-777): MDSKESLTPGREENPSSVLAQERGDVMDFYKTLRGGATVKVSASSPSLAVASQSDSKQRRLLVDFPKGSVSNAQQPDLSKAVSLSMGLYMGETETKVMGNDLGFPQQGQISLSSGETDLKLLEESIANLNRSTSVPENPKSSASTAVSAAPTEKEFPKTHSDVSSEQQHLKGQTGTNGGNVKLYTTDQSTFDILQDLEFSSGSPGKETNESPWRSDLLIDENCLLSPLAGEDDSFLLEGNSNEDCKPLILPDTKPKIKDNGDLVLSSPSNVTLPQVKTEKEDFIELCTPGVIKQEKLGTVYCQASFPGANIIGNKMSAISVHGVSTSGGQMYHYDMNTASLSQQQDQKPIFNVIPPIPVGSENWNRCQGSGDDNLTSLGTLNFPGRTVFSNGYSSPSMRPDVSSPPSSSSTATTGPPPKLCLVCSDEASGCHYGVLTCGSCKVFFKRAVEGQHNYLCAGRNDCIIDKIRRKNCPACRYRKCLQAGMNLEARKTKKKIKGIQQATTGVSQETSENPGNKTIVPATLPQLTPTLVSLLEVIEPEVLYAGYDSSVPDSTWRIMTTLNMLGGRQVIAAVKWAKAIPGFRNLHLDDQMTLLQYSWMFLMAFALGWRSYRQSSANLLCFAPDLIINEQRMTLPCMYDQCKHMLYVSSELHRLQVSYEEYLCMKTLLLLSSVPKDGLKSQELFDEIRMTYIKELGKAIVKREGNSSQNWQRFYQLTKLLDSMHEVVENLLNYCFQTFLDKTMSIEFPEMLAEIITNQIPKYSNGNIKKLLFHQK
Kind of assay: GR Fluorescence Polarization Assay (PolarScreen Glucocorticoid Receptor Competitor Assay, Red). The following applies: IC50 class ranges, read-out: GR binding. In short, it runs like this: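 Competitive fluorescence-polarization assay using a red fluorescent glucocorticoid tracer with human GR in kit buffer. Compounds serially diluted 1:4 in DMSO, incubated with tracer and GR overnight at 4° C, then polarization read.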
(Fluorescence polarisation rises when a labelled molecule tumbles more slowly, as on binding a larger partner.)

On to `Cc1ccc(Cl)cc1C1SCCNc2c1c(-c1ccccn1)nn2C` (stereo not shown) [D.40], for which, in assay [1], the Emax (as a rule, the size of the effect at its maximum, as opposed to the concentration needed) was below 50%. Besides, in assay [2], the pIC50 is above 7.00.
In assay [1], `Cc1cc(C(F)(F)F)ccc1C1SCCNc2c1c(-c1ccccn1)nn2C` (stereo not shown) [D.41] registered an Emax below 50%. Also, in assay [2], the pIC50 is above 7.00.
As to `Cc1cc(O)ccc1C1SCCNc2c1c(-c1ccccn1)nn2C` (stereo not shown) [D.42, 3-methyl-4-[1-methyl-3-(2-pyridyl)-4,6,7,8-tetrahydropyrazolo[3,4-e][1,4]thiazepin-4-yl]phenol], the Emax in assay [1] is above 50%. Also, the pIC50 in assay [2] is above 7.00.
Taken in the same sequence, the figures for `Cc1cc(-c2nn(C)c3c2C(c2ccc(Cl)cc2C)SCCN3)no1` (stereo not shown) [D.43] were below 50% and above 7.00.
In turn, `Cc1cc(Br)ccc1C1SCCNc2onc(-c3ccccn3)c21` (stereo not shown) [D.44, 4-(4-bromo-2-methyl-phenyl)-3-(2-pyridyl)-4,6,7,8-tetrahydroisoxazolo-[5,4-e][1,4]thiazepine] had an Emax in assay [1] below 50%. Besides, the pIC50 in assay [2] is above 7.00.
As for `Cc1cc(Cl)ccc1C1SC(C)(C)CNc2c1c(C1CC1)nn2C` (stereo not shown) [D.45], the Emax in assay [1] was above 60%. Also, in assay [2], the pIC50 was above 7.00.
In turn, `Cc1ccc(Cl)cc1C1SC(C)(C)CNc2c1c(C1CC1)nn2C` (stereo not shown) [D.46] returned a maximal effect (Emax) in assay [1] below 50%. Moreover, in assay [2], the pIC50 was above 7.00.
Taken in the same sequence, the figures for `COc1cc(Cl)ccc1C1SC(C)(C)CNc2c1c(C1CC1)nn2C` (stereo not shown) [D.47] were below 50% and 6.00 to 7.00.
The corresponding values for `Cn1nc(C2CC2)c2c1NCC(C)(C)SC2c1ccc(Cl)cc1C(F)(F)F` (stereo not shown) [D.48] are below 50% and 6.00 to 7.00.
Taken in the same sequence, the figures for `Cc1ccc(C)c(C2SC(C)(C)CNc3c2c(C2CC2)nn3C)c1` (stereo not shown) [D.49] were below 50% and above 7.00.
For `Cc1cc(Cl)cnc1C1SC(C)(C)CNc2c1c(C1CC1)nn2C` (stereo not shown) [D.50], the maximal effect (Emax) in assay [1] is below 50%. The pIC50 in assay [2] is 6.00 to 7.00.
The corresponding values for `Cc1cc(Br)ccc1C1SC(C)CNc2c1c(C1CC1)nn2C` (stereo not shown) [D.51, 4-(4-bromo-2-methyl-phenyl)-3-cyclopropyl-1,6-dimethyl-4,6,7,8-tetrahydropyrazolo[3,4-e][1,4]thiazepine] are below 50% and 6.00 to 7.00.
As to `Cc1cc(Br)ccc1C1SC(C)CNc2c1c(C1CC1)nn2C` (stereo not shown) [D.52], in assay [1] (A549 Cell Assay to Measure Inflammation Markers), the “A549 Emax” value is given as “D (a compound with Emax<50%)”. In assay [2], the pIC50 is above 7.00.
Consider `Cn1nc(C2CC2)c2c1NCC(C)(C)SC2c1ccc(Cl)cc1F` (stereo not shown) [D.53], for which the Emax in assay [1] was below 50%. Besides, in assay [2], the pIC50 is above 7.00.
Take `Cc1ccc(Br)cc1C1SC(C)(C)C=Nc2c1c(C1CC1)nn2C` (stereo not shown) [D.54]: in assay [1], the Emax is below 50%. Further, the pIC50 in assay [2] is 5.00 to 6.00.
As to `Cc1ccc(Br)cc1C1SC(C)(C)CNc2c1c(C1CC1)nn2C` (stereo not shown) [D.55, 4-(5-bromo-2-methyl-phenyl)-3-cyclopropyl-1,6,6-trimethyl-7,8-dihydro-4H-pyrazolo[3,4-e][1,4]thiazepine], the maximal effect (Emax) in assay [1] is below 50%. Besides, the pIC50 in assay [2] was above 7.00.
The corresponding values for `Cc1cc(F)ccc1C1SC(C)(C)CNc2c1c(C1CC1)nn2C` (stereo not shown) [D.56] are below 50% and above 7.00.
The corresponding values for `Cc1cc(Cl)ccc1C1SC(C)(C)CNc2c1c(C)nn2C` (stereo not shown) [D.57] are above 50% and above 7.00.
Taken in the same sequence, the figures for `Cc1cc(Br)ccc1C1SC(C)(C)CNc2c1c(C)nn2C` (stereo not shown) [D.58, 4-(4-bromo-2-methyl-phenyl)-1,3,6,6-tetramethyl-7,8-dihydro-4H-pyrazolo[3,4-e][1,4]thiazepine] were above 50% and above 7.00.
In assay [1], `Cc1cc(Cl)ccc1C1SCCNc2c1c(C)nn2C` (stereo not shown) [D.59] returned an Emax below 50%. Moreover, the pIC50 in assay [2] is 6.00 to 7.00.
Taken in the same sequence, the figures for `Cc1nn(C)c2c1C(c1ccc(Br)cc1Cl)SC(C)(C)CN2` (stereo not shown) [D.60] were above 50% and above 7.00.
The corresponding values for `Cc1cc(C(F)(F)F)ccc1C1SC(C)(C)CNc2c1c(C)nn2C` (stereo not shown) [D.61] are below 50% and above 7.00.
The corresponding values for `Cc1cc(Br)ccc1C1SC(C)CNc2c1c(C)nn2C` (stereo not shown) [D.62, 4-(4-bromo-2-methyl-phenyl)-1,3,6-trimethyl-4,6,7,8-tetrahydropyrazolo[3,4-e][1,4]thiazepine] are below 50% and 6.00 to 7.00.
Turning to `Cc1n[nH]c2c1C(c1ccc(Cl)cc1Cl)SC(C)(C)CN2` (stereo not shown) [D.63], the maximal effect (Emax) in assay [1] is below 50%. In addition, the pIC50 in assay [2] was 5.00 to 6.00.
Taken in the same sequence, the figures for `CC(C)c1nn(C)c2c1C(c1ccc(Cl)cc1Cl)SC(C)(C)CN2` (stereo not shown) [D.64] were below 50% and 6.00 to 7.00.
The corresponding values for `Cc1nn(C)c2c1C(c1ccc(Cl)cc1Cl)SC1(CCCC1)CN2` (stereo not shown) [D.65] are below 50% and above 7.00.
The corresponding values for `Cc1nn(C)c2c1C(c1ccc(Cl)cc1Cl)SC1(CCC1)CN2` (stereo not shown) [D.66] are below 50% and above 7.00.
In turn, `Cc1nn(C)c2c1C(c1ccc(Cl)cc1Cl)SC1(CCOCC1)CN2` (stereo not shown) [D.67] had an Emax in assay [1] below 50%. The pIC50 in assay [2] was above 7.00.
The corresponding values for `Cc1nn(C)c2c1C(c1ccc(Cl)cc1)SC(CCO)CN2` (stereo not shown) [D.68, 2-(4-(4-chlorophenyl)-1,3-dimethyl-4,6,7,8-tetrahydro-1H-pyrazolo[3,4-e][1,4]thiazepin-6-yl)ethanol 2,2,2-trifluoracetate] are below 50% and above 7.00.
Taken in the same sequence, the figures for `Cc1c(Br)cccc1C1SC(C)(C)CNc2c1c(C1CC1)nn2C` (stereo not shown) [D.69] were below 50% and 6.00 to 7.00.
Regarding `Cc1cc(Cl)ccc1C1SC(C)(C)CNc2c1c(C)nn2C1CCCC1` (stereo not shown) [D.70], in assay [1], the Emax is below 50%. The pIC50 in assay [2] was 6.00 to 7.00.
For the compound `Cc1cc(S(C)(=O)=O)ccc1C1SC(C)(C)CNc2c1c(C)nn2C` (stereo not shown) [D.71], in assay [1], the Emax is below 50%. In addition, in assay [2], the pIC50 was 5.00 to 6.00.
Taken in the same sequence, the figures for `Cc1cc(Cl)ccc1C1SCCNc2c1c(C1CCCO1)nn2C` (stereo not shown) [D.72] were below 50% and 6.00 to 7.00.
The compound `Cc1cc(Cl)ccc1C1SCCNc2c1c(O)nn2C` (stereo not shown) [D.73, 4-(4-chloro-2-methyl-phenyl)-1-methyl-4,6,7,8-tetrahydropyrazolo[3,4-e][1,4]thiazepin-3-ol] had an Emax in assay [1] below 50%. Moreover, the pIC50 in assay [2] was below 5.00.
The corresponding values for `Cn1nc(C2CC2)c2c1NCC(C)(C)SC2c1ccc(Cl)cc1Cl` (stereo not shown) [D.74] are below 50% and above 7.00.
The corresponding values for `Cc1nn(C)c2c1C(c1ccc3[nH]ncc3c1)SCCN2` (stereo not shown) [D.76] are below 50% and below 5.00.
Taken in the same sequence, the figures for `Cn1nc(C2CCCC2)c2c1NCCSC2c1ccc(Cl)cc1Cl` (stereo not shown) [D.77] were below 50% and above 7.00.
With `Cn1nc(C2CCCC2)c2c1NCC(C)(C)SC2c1ccc(Cl)cc1Cl` (stereo not shown) [D.79], the Emax in assay [1] is below 50%. Further, in assay [2], the pIC50 is above 7.00.
Taken in the same sequence, the figures for `Cc1nn(C)c2c1C(c1ccc(Cl)cc1Cl)SCCN2` (stereo not shown) [D.80] were below 50% and 6.00 to 7.00.
The compound `Cn1nc(-c2ccc(Cl)cc2)c2c1NCCSC2c1ccc(Cl)cc1Cl` (stereo not shown) [D.82] displayed an Emax in assay [1] below 50%. In addition, the pIC50 in assay [2] is 6.00 to 7.00.
Take `Cn1nc(-c2ccccc2)c2c1NCCSC2c1ccc(Cl)cc1Cl` (stereo not shown) [D.83]: the Emax in assay [1] is below 50%. For the same compound, the pIC50 in assay [2] was above 7.00.
For `CC(C)c1nn(C)c2c1C(c1ccc(Cl)cc1Cl)SCCN2` (stereo not shown) [D.84], the Emax in assay [1] was below 50%. Besides, the pIC50 in assay [2] is 6.00 to 7.00.
The corresponding values for `Cn1nc(C(C)(C)C)c2c1NCCSC2c1ccc(Cl)cc1Cl` (stereo not shown) [D.85] are below 50% and 6.00 to 7.00.
Taken in the same sequence, the figures for `Cn1nc(-c2cc(F)cc(F)c2)c2c1NCCSC2c1ccc(Cl)cc1Cl` (stereo not shown) [D.90] were below 50% and above 7.00.
Taken in the same sequence, the figures for `CC(C)Cc1nn(C)c2c1C(c1ccc(Cl)cc1Cl)SCCN2` (stereo not shown) [D.92] were below 50% and above 7.00.
As to `Cn1nc(-c2ccc(F)cc2)c2c1NCCSC2c1ccc(Cl)cc1Cl` (stereo not shown) [D.94], in assay [1], the Emax was below 50%. In addition, the pIC50 in assay [2] is above 7.00.
`Cn1nc(-c2cccs2)c2c1NCCSC2c1ccc(Cl)cc1Cl` (stereo not shown) [D.101]: the Emax in assay [1] was below 50%. In addition, the pIC50 in assay [2] is above 7.00.
The corresponding values for `Cn1nc(-c2ccccn2)c2c1NCCSC2c1ccc(Cl)cc1F` (stereo not shown) [D.103] are below 50% and above 7.00.
The corresponding values for `Cc1cc(Cl)ccc1C1SCCNc2c1c(-c1ccccn1)nn2CC(F)(F)F` (stereo not shown) [D.104] are above 70% and above 7.00.
The corresponding values for `Cc1cc(Cl)ccc1C1SCCNc2c1c(-c1ccccn1)nn2C(C)C` (stereo not shown) [D.105] are above 60% and above 7.00.
